# Experimental data published in PubChem BioAssay (NCI).
#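 In this assay, cells in 96-well plates receive the compound at five concentrations for 48 hours. Endpoints are linearly interpolated between the surrounding concentrations. At the GI50, growth is halved. TGI is the concentration that stops growth completely.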
# Key:
# Test in all cases: inhibition of tumour cell growth, NCI panel, 48 h
# [1] = test system: 786-0 renal
# [2] = test system: A498 renal
# [3] = test system: A549 NSCLC
# [4] = test system: ACHN renal
# [5] = test system: BT-549 breast
# [6] = test system: CAKI-1 renal
# [7] = test system: CCRF-CEM leukemia
# [8] = test system: COLO 205 colon
# [9] = test system: DU-145 prostate
# [10] = test system: HCC-2998 colon
# [11] = test system: HCT-116 colon
# [12] = test system: HCT-15 colon
# [13] = test system: HL-60(TB) leukemia
# [14] = test system: HOP-62 NSCLC
# [15] = test system: HOP-92 NSCLC
# [16] = test system: HS 578T breast
# [17] = test system: HT29 colon
# [18] = test system: IGROV1 ovarian
# [19] = test system: K-562 leukemia
# [20] = test system: KM12 colon
# [21] = test system: LOX IMVI melanoma
# [22] = test system: M14 melanoma
# [23] = test system: MALME-3M melanoma
# [24] = test system: MCF7 breast
# [25] = test system: MDA-MB-231 breast
# [26] = test system: MDA-MB-435
# [27] = test system: MOLT-4 leukemia
# [28] = test system: NCI-H226 lung
# [29] = test system: NCI-H23 lung
# [30] = test system: NCI-H460 lung
# [31] = test system: NCI-H522 lung
# [32] = test system: NCI/ADR-RES ovarian
# [33] = test system: OVCAR-3 ovarian
# [34] = test system: OVCAR-4 ovarian
# [35] = test system: OVCAR-5 ovarian
# [36] = test system: OVCAR-8 ovarian
# [37] = test system: PC-3 prostate
# [38] = test system: RPMI-8226 leukemia
# [39] = test system: RXF 393 renal
# [40] = test system: SF-268 CNS
# [41] = test system: SF-295 CNS
# [42] = test system: SF-539 CNS
# [43] = test system: SK-MEL-2 melanoma
# [44] = test system: SK-MEL-28 melanoma
# [45] = test system: SK-MEL-5 melanoma
# [46] = test system: SK-OV-3 ovarian
# [47] = test system: SN12C renal
# [48] = test system: SNB-19 CNS
# [49] = test system: SNB-75 CNS
# [50] = test system: SW-620 colon
# [51] = test system: T-47D breast
# [52] = test system: TK-10 renal
# [53] = test system: U251 CNS
# [54] = test system: UACC-257 melanoma
# [55] = test system: UACC-62 melanoma
# [56] = test system: UO-31 renal
structure (smiles),measurement,setting,value
O=C(c1ccc(Cl)cc1)c1no[n+]([O-])c1C(=O)c1ccc(Cl)cc1,GI50,[1],3.97 µM
same,TGI,[1],13.7 µM
same,GI50,[2],16.4 µM
same,TGI,[2],36.4 µM
same,GI50,[3],23.5 µM
same,TGI,[3],62.1 µM
same,GI50,[4],5.69 µM
same,TGI,[4],17.9 µM
same,GI50,[5],9.21 µM
same,TGI,[5],22 µM
same,GI50,[6],4.58 µM
same,TGI,[6],12.2 µM
same,GI50,[7],2 µM
same,TGI,[7],4.75 µM
same,GI50,[8],14.6 µM
same,TGI,[8],34.3 µM
same,GI50,[9],17 µM
same,TGI,[9],31 µM
same,GI50,[10],21 µM
same,TGI,[10],44.8 µM
same,GI50,[11],10.7 µM
same,TGI,[11],27.4 µM
same,GI50,[12],12.6 µM
same,TGI,[12],31 µM
same,GI50,[13],6.06 µM
same,TGI,[13],20.7 µM
same,GI50,[14],28.5 µM
same,TGI,[14],> 74.7 µM
same,GI50,[15],1.77 µM
same,TGI,[15],4.26 µM
same,GI50,[16],21.2 µM
same,TGI,[16],68.2 µM
same,GI50,[17],11.2 µM
same,TGI,[17],26.4 µM
same,GI50,[18],3.87 µM
same,TGI,[18],10.3 µM
same,GI50,[19],5.32 µM
same,TGI,[19],31.8 µM
same,GI50,[20],20.3 µM
same,TGI,[20],45.6 µM
same,GI50,[21],1.79 µM
same,TGI,[21],3.59 µM
same,GI50,[22],13.3 µM
same,TGI,[22],27.2 µM
same,GI50,[23],2.18 µM
same,TGI,[23],4.2 µM
same,GI50,[24],11.3 µM
same,TGI,[24],31.7 µM
same,GI50,[25],10.9 µM
same,TGI,[25],26.8 µM
same,GI50,[26],13.5 µM
same,TGI,[26],26.8 µM
same,GI50,[27],4.73 µM
same,TGI,[27],22.1 µM
same,GI50,[28],15.8 µM
same,TGI,[28],31.1 µM
same,GI50,[29],16.5 µM
same,TGI,[29],40.9 µM
same,GI50,[30],23.6 µM
same,TGI,[30],63 µM
same,GI50,[31],1.74 µM
same,TGI,[31],3.37 µM
same,GI50,[32],20.5 µM
same,TGI,[32],49.8 µM
same,GI50,[33],6.6 µM
same,TGI,[33],14.5 µM
same,GI50,[34],13.3 µM
same,TGI,[34],27.5 µM
same,GI50,[35],16.5 µM
same,TGI,[35],35.3 µM
same,GI50,[36],14.5 µM
same,TGI,[36],33.8 µM
same,GI50,[37],8.76 µM
same,TGI,[37],22 µM
same,GI50,[38],4.6 µM
same,TGI,[38],24.4 µM
same,GI50,[39],11.5 µM
same,TGI,[39],23.8 µM
same,GI50,[40],14.1 µM
same,TGI,[40],33.2 µM
same,GI50,[41],14.3 µM
same,TGI,[41],29 µM
same,GI50,[42],3.24 µM
same,TGI,[42],8.17 µM
same,GI50,[43],14.9 µM
same,TGI,[43],28.7 µM
same,GI50,[44],14.1 µM
same,TGI,[44],27.8 µM
same,GI50,[45],15.9 µM
same,TGI,[45],30.5 µM
same,GI50,[46],21 µM
same,TGI,[46],42.9 µM
same,GI50,[47],13 µM
same,TGI,[47],28.3 µM
same,GI50,[48],32.7 µM
same,TGI,[48],> 95.8 µM
same,GI50,[49],15 µM
same,TGI,[49],29 µM
same,GI50,[50],11.8 µM
same,TGI,[50],25.1 µM
same,GI50,[51],13.1 µM
same,TGI,[51],43.1 µM
same,GI50,[52],15 µM
same,TGI,[52],28.3 µM
same,GI50,[53],15.8 µM
same,TGI,[53],30.2 µM
same,GI50,[54],14.5 µM
same,TGI,[54],27.8 µM
same,GI50,[55],13.7 µM
same,TGI,[55],27.3 µM
same,GI50,[56],1.64 µM
same,TGI,[56],3.2 µM
